Measured values taken from patent publication US20100267803A1, “Regulators Of Fat Metabolism As Anti-Cancer Targets” (The Research Foundation of State University Of New York, priority 2008, published 2010).

What was measured:
PBP = settings: after shRNA transfection
Experimental: Immunoblotting. Cell extracts for western blots were obtained using RIPA buffer (1% Triton X-100, 40mM NaCl, 0.1% SDS, 10 mM Tris pH 8.0) supplemented with complete cocktail of proteinase inhibitors (Roche). For detection of phoshporylated epitopes, the PhosSTOP cocktail of phospatase inhibitors (Roche) was added in the lysis buffer. Protein extracts were separated by SDS-PAGE, transferred to Immobilon-P (Millipore) membranes and immunoblotted according to standard protocols. Blots were imaged using a FluorChem HD (Alpha Innotech) imaging system and images were analyzed by densitometry using the FluorChem 9900 software (Alpha Innotech). Antibodies used: anti-flag (M2; Stratagene), PBP (TRAP220, C-19; Santa Cruz), GAPDH (V-18; Santa Cruz Biotechnology), ERBB2 (clone 42; BD), phospho-ERBB2 (Tyr877, #2241; Cell Signaling Technology), phospho-ERBB2 (Tyr1221/1222, 6B12; Cell Signaling Technology), anti-rabbit IgG-HRP (sc-2204, Santa Cruz Biotechnology), anti-goat IgG-HRP (sc-2768, Santa Cruz Biotechnology), anti-mouse IgG-HRP (#31430; Pierce Biotechnology) qRT-PCR.

PBP mRNA = experiment: qRT-PCR of PBP mRNA in BT474 cells; assay type: cell-based, human; settings: shRNA 48 h
Experimental: (§1) FIG. 2 NR1D1 and PBP are necessary for survival of ERBB2-positive cells. (a) PBP and NR1D1 mRNA levels of BT474 cells transfected with luciferase (control), PBP or NR1D1 shRNAs for 48 h, analyzed by qRT-PCRs. (Error bars are s.d from 3 experiments; ***P<0.003, **P=0.01, *P=0.02). (b) BMAL1 luciferase reporter activity of BT474 cells transfected with either empty vector (control), or NR1D1 shRNA for 48 h.
(§2) Cell viability—apoptosis assays. […] At least 30 fields were imaged per single experiment. […] Immunoblotting. […] PCR reaction was run using standard conditions.

ERBB2 mRNA = experiment: qRT-PCR of ERBB2 mRNA in BT474 cells; assay type: cell-based, human; settings: shRNA 48 h
Experimental: Results are shown as percentage of control. (**P=0.03). (c) BT474 cells were transfected with luciferase (control), PBP and NR1D1 shRNAs and co-transfected with GFP. Green cells were counted at intervals and expressed as percentage of control. (Error bars are s.d from 3 individual experiments; *P<0.08, **P<0.03, ***P<0.005). (d) BT474 cells were transfected with luciferase (control), PBP or NR shRNAs for 48 h. Immunofluorescence was performed for cleaved Caspase-3 signal; cell nuclei were stained with Hoechst 33243. (e) Cells from […] were counted for cleaved Caspase-3 signal. (Error bars are s.d from 3 individual experiments; ***P<0.0003). (f) BT474 cells were transfected with luciferase (control) PBP, NR1D1 or PBP and NR1D1 shRNAs together and co-transfected with GFP. Transfected cells were counted at 24 h and 72 h and the 72 h-to-24 h ratio for each shRNA was calculated and expressed as % of the control shRNA (luciferase). (Error bars are s.d from 3 individual experiments; **P=0.01, ***P<0.002). (g) Cells from (f) were counted for cleaved Caspase-3 signal. (Error bars are s.d from 3 individual experiments; ***P<0.0001). (h) ERBB2 mRNA levels of BT474 cells transfected with luciferase (control), PBP or NR1D1 shRNAs for 48 h, analyzed by qRT-PCRs. (Error bars are s.d from 3 individual experiments; ***P=0.0001).
Cell viability—apoptosis assays. […]

NR1D1 = experiment: Immunoblot of NR1D1 protein after shRNA; assay type: cell-based, human; settings: after shRNA transfection
Text: as §2

BMAL1 reporter = experiment: BMAL1 luciferase reporter assay in BT474 cells; assay type: cell-based, human; settings: shRNA 48 h, vs empty vector
Experimental: as §1
FIG. 3 PPAR. inhibition impacts NR1D1 expression and ERBB2-positive cells viability. (a) Cell counts of BT474, MDA-MB-361, MCF-7 and HMEC cells treated with vehicle, 10 and 20 μM of the PPAR. antagonist GW9662 for 72 hrs. Results represented as % of control (vehicle). (Error bars are s.d from 3 individual experiments; *P>0.2, **P<0.05, ***P<0.002). (b) BT474 cells treated with vehicle or 20 μM of GW9662 for 48 h were immuno-stained for cleaved Caspase-3. (c) Quantification of Caspase-3 signal. […] (d) aP2 and NR1D1 mRNA levels of BT474 cells treated with vehicle (control) and 20 μM of GW9662 for 48 h, analyzed by qRT-PCRs. […]
Reporter assays. […] Cells were lysed 48 h post-transfection and firefly (reporter) and renilla luciferase activities were measured using the Dual-Luciferase Reporter Assay kit (Promega) on a BioTek Synergy HT reader. The ratio of Firefly to Renilla luciferase activity was calculated and presented as percentage of control.

NR1D1 mRNA = experiment: qRT-PCR of NR1D1 mRNA in BT474 cells; assay type: cell-based, human; settings: shRNA 48 h, qRT-PCR
Experimental: as §1
FIG. 3 PPAR. inhibition impacts NR1D1 expression and ERBB2-positive cells viability. (a) Cell counts of BT474, MDA-MB-361, MCF-7 and HMEC cells treated with vehicle, 10 and 20 μM of the PPAR. antagonist GW9662 for 72 hrs. Results represented as % of control (vehicle). (Error bars are s.d from 3 individual experiments; *P>0.2, **P<0.05, ***P<0.002). (b) BT474 cells treated with vehicle or 20 μM of GW9662 for 48 h were immuno-stained for cleaved Caspase-3. (c) Quantification of Caspase-3 signal. (Error bars are s.d from 3 individual experiments; ***P=0.002). (d) aP2 and NR1D1 mRNA levels of BT474 cells treated with vehicle (control) and 20 μM of GW9662 for 48 h, analyzed by qRT-PCRs. […]

MDH1 mRNA = experiment: qRT-PCR of MDH1 mRNA in BT474 cells; assay type: cell-based, human; settings: shRNA 48 h
Experimental: (§3) FIG. 5. (a) MDH1 and ME1 mRNA levels of BT474 cells treated with luciferase (control), PBP or NR1D1 shRNAs for 48 h, analyzed by qRT-PCRs. (Error bars are s.d from 3 experiments; **P<0.002 (b) BT474 and MCF-7 cells were transfected with luciferase (control) MDH1 and ME1 shRNAs (Error bars are s.d from 3 individual experiments; ***P=0.0003). (c) BT474 cells) assayed for cleaved Caspase-3 signal by immunofluorescence 48 h after transfection; cell nuclei were stained with Hoechst 33243. (d) Quantification of cleaved Caspase-3 signal from cells in (c). (Error bars are s.d from 3 individual experiments; ***P<0.005). (e) Enzymes involved in fatty acid synthesis and storage that are regulated by NR1D1 and PBP and their proposed contribution to energy production necessary for survival of ERBB2-positive breast cancer cells.
as §2

ME1 mRNA = experiment: qRT-PCR of ME1 mRNA in BT474 cells; assay type: cell-based, human; settings: shRNA 48 h
Experimental: as §3, §2

| Substance | PBP protein levels (PBP) | decrease in mRNA levels of target (PBP) (PBP mRNA) | mRNA levels of ERBB2 (ERBB2 mRNA) | NR1D1 protein levels (NR1D1) | up-regulation of BMAL1 reporter (BMAL1 reporter) | decrease in mRNA levels of target (NR1D1) (NR1D1 mRNA) | MDH1 message levels (MDH1 mRNA) | ME1 message levels (ME1 mRNA) |
| --- | --- | --- | --- | --- | --- | --- | --- | --- |
| PBP shRNA: shRNA, mature sequence CCGAGTTCCTCTTATCCTA (shRNA) | decreased protein levels | > 60% | significantly decreased |  |  |  |  |  |
| NR1D1 shRNA: shRNA, mature sequence GGCATGGTGTTACTGTGTA (shRNA) |  |  | no effect | decreased protein levels | 2.5 fold | > 60% | significantly decreased | significantly decreased |
